Laboratory results reported in ChEMBL document CHEMBL1201862, “PubChem BioAssay data set” (2004).
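Compound exposure: 48 hours, 5 concentrations, 96-well plates. GI50 marks 50% less growth.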 Calls of active or inactive are those of the source. Cut-off read from the data, not from the text of the source: active = GI50 up to about 1.1 µM and inactive = higher.

What was measured:
Experiment in all cases: NCI anticancer screen, dose series, 48 h
HCC 2998 = tested on: HCC 2998
HCT-116 = tested on: HCT-116
KM12 = tested on: KM12
NCI-H460 = tested on: NCI-H460
SK-MEL-2 = tested on: SK-MEL-2
UACC-257 = tested on: UACC-257
CCRF-CEM = tested on: CCRF-CEM
SNB-19 = tested on: SNB-19
OVCAR-4 = tested on: OVCAR-4
SF-539 = tested on: SF-539
LOX IMVI = tested on: LOX IMVI
RXF 393 = tested on: RXF 393
SK-MEL-5 = tested on: SK-MEL-5
EKVX = tested on: EKVX
TK-10 = tested on: TK-10
SR = tested on: SR
SN12C = tested on: SN12C
M14 = tested on: M14
U-251 = tested on: U-251
SF-268 = tested on: SF-268

SMILES | GI50 (HCC 2998) | GI50 (HCT-116) | GI50 (KM12) | GI50 (NCI-H460) | GI50 (SK-MEL-2) | GI50 (UACC-257) | GI50 (CCRF-CEM) | GI50 (SNB-19) | GI50 (OVCAR-4) | GI50 (SF-539) | GI50 (LOX IMVI) | GI50 (RXF 393) | GI50 (SK-MEL-5) | GI50 (EKVX) | GI50 (TK-10) | GI50 (SR) | GI50 (SN12C) | GI50 (M14) | GI50 (U-251) | GI50 (SF-268)
CCCSc1nc(COC(=O)NC)c(COC(=O)NC)n1C | > 100 µM (inactive) | > 100 µM (inactive) | > 100 µM (inactive) | 54.7 µM (inactive) | > 100 µM (inactive) | > 100 µM (inactive) | 20.7 µM (inactive) | > 100 µM (inactive) | > 100 µM (inactive) | > 100 µM (inactive) | > 100 µM (inactive) | 37.4 µM (inactive) | > 100 µM (inactive) | > 100 µM (inactive) | – | – | – | – | – | –
CCOP(=O)(OCC)C(Cc1c[nH]c2ccccc12)C(=O)O (stereo unspecified) | > 100 µM (inactive) | > 100 µM (inactive) | – | > 100 µM (inactive) | > 100 µM (inactive) | > 100 µM (inactive) | > 100 µM (inactive) | > 100 µM (inactive) | > 100 µM (inactive) | – | > 100 µM (inactive) | – | > 100 µM (inactive) | – | > 100 µM (inactive) | > 100 µM (inactive) | > 100 µM (inactive) | > 100 µM (inactive) | > 100 µM (inactive) | –
C/C=C/C(C#N)O[Si](C)(C)C (stereo unspecified) | > 100 µM (inactive) | > 100 µM (inactive) | > 100 µM (inactive) | > 100 µM (inactive) | > 100 µM (inactive) | > 100 µM (inactive) | – | > 100 µM (inactive) | > 100 µM (inactive) | > 100 µM (inactive) | – | > 100 µM (inactive) | > 100 µM (inactive) | > 100 µM (inactive) | > 100 µM (inactive) | – | > 100 µM (inactive) | > 100 µM (inactive) | > 100 µM (inactive) | > 100 µM (inactive)
CC(NC(=O)c1ccc(OP(=O)(OCC2=CC(=O)c3ccccc3C2=O)N(C)CCCCCl)cc1)c1ccc(OCC2CCCCC2)c(C(N)=O)c1 (stereo unspecified) | 0.0149 µM (active) | 14.3 µM (inactive) | 12 µM (inactive) | 11 µM (inactive) | 14.8 µM (inactive) | 4.59 µM (inactive) | 7.71 µM (inactive) | 14.4 µM (inactive) | – | 15.2 µM (inactive) | 4.27 µM (inactive) | – | 0.328 µM (active) | – | 25.1 µM (inactive) | 12.6 µM (inactive) | 13.4 µM (inactive) | 3.32 µM (inactive) | 10.6 µM (inactive) | 13.4 µM (inactive)
CC1(C)C2CCC3(OCCO3)C1C1OC12 (stereo unspecified) | – | > 100 µM (inactive) | > 100 µM (inactive) | > 100 µM (inactive) | > 100 µM (inactive) | > 100 µM (inactive) | > 100 µM (inactive) | 30 µM (inactive) | > 100 µM (inactive) | > 100 µM (inactive) | > 100 µM (inactive) | > 100 µM (inactive) | > 100 µM (inactive) | > 100 µM (inactive) | > 100 µM (inactive) | – | – | > 100 µM (inactive) | > 100 µM (inactive) | > 100 µM (inactive)
COc1ccc(CCC2NCCc3cc(OC)c(OC)cc32)cc1 (stereo unspecified) | > 100 µM (inactive) | > 100 µM (inactive) | > 100 µM (inactive) | > 100 µM (inactive) | > 100 µM (inactive) | > 100 µM (inactive) | > 100 µM (inactive) | > 100 µM (inactive) | 25.3 µM (inactive) | > 100 µM (inactive) | – | – | > 100 µM (inactive) | > 100 µM (inactive) | > 100 µM (inactive) | – | > 100 µM (inactive) | > 100 µM (inactive) | > 100 µM (inactive) | > 100 µM (inactive)
CC(=O)OCCCCn1cnc2c(Cl)nc(Nc3ccccc3)nc21 | 42.9 µM (inactive) | > 100 µM (inactive) | > 100 µM (inactive) | > 100 µM (inactive) | – | > 100 µM (inactive) | > 100 µM (inactive) | – | > 100 µM (inactive) | > 100 µM (inactive) | > 100 µM (inactive) | – | 65.6 µM (inactive) | > 100 µM (inactive) | > 100 µM (inactive) | > 100 µM (inactive) | > 100 µM (inactive) | – | > 100 µM (inactive) | –
Cc1ccc(-c2nnc3s/c(=C\c4ccc(N(C)C)cc4)c(=O)n23)cc1 | > 100 µM (inactive) | > 100 µM (inactive) | > 100 µM (inactive) | > 100 µM (inactive) | > 100 µM (inactive) | 11.7 µM (inactive) | > 100 µM (inactive) | > 100 µM (inactive) | > 100 µM (inactive) | > 100 µM (inactive) | > 100 µM (inactive) | > 100 µM (inactive) | > 100 µM (inactive) | > 100 µM (inactive) | > 100 µM (inactive) | – | > 100 µM (inactive) | > 100 µM (inactive) | > 100 µM (inactive) | > 100 µM (inactive)
